According to patent publication US20250146012A1 (priority 2011, published 2025):
Like-named read-outs stand apart in the source and are kept apart here.

Assays:
[1] = tested on: plants comprising the MON 88701 event; format: in vivo, Gossypium hirsutum
Procedure: In year 3, efficacy field testing of event MON 88701 was conducted to study the rate and timing of application of dicamba and/or glufosinate. […] The treatment and application timing are detailed in Table 2. […] The sprayer protocol was as described for year 2 efficacy field testing. Stand rating, visual injury rating (percent epinasty, percent necrosis), plant height and node number, 50-boll sampling, and yield determinations were as described for agronomic and efficacy field testing above.

[2] = tested on: non-transgenic, wild-type Coker 130; test: Year 1 efficacy field trial, wild-type control; format: in vivo, Gossypium hirsutum; conditions: sequential regimen: dicamba 1 lb/A preemergence, 5 node, 12 node; glufosinate 1.09 lb/A at 2 node and 8 node; FIG. 7
Procedure: (§1) In year 1, efficacy testing was conducted with eight events compared to non-transgenic, wild-type Coker 130. For this testing, paired plots were sprayed with dicamba (Clarity®, BASF, Research Triangle Park, NC) and glufosinate (Ignite®, Bayer CropScience, Research Triangle Park, NC) or left unsprayed. The plots were maintained weed-and insect-free using conventional control programs for the duration of the trial. […] For plots that were sprayed, the following applications were conducted: dicamba was applied preemergence at 1 lb/A followed by glufosinate applied 1.09lb/A at the 2 node stage, followed by dicamba applied at 1 lb/A at the 5 node stage, followed by glufosinate applied 1.09 lb/A at the 8 node stage, followed by dicamba applied at 1 lb/A at the 12 node stage. Neither dicamba nor glufosinate were applied with surfactants, fertilizer additive, or other adjuvant. […] Plots were harvested and yield recorded as lbs/plot of seed cotton and expressed as lb/acre of seed cotton. […]

[3] = tested on: plants comprising the MON 88701 event
Procedure: In year 2, efficacy testing was conducted with twelve events compared to non-transgenic, wild-type Coker 130. For this testing, paired plots were either sprayed or not sprayed. The plots were maintained weed-and insect-free using conventional control programs for the duration of the trial. For the plots that were sprayed, the following treatment applications were conducted (1) 0.5 lb/A dicamba applied PRE, Early POST, Mid POST and Late POST; (2) 1 lb/A dicamba applied PRE, Early POST, Mid POST and Late POST; (3) 2 lb/A dicamba applied PRE, Early POST, Mid POST and Late POST; (4) 0.5 lb/A glufosinate applied Early POST, Mid POST and Late POST: (5) 1 lb/A glufosinate applied Early POST, Mid POST and Late POST: 6) 2 lb/A glufosinate applied Early POST, Mid POST and Late POST; and 7) Control (unsprayed). Preemergence (PRE) is defined as immediately after cotton planting (within 24 hours); Early POST as 2-node cotton; Mid POST as 8-node cotton; and Late POST as 14 node cotton. For these efficacy field trials, there were three plots composed entirely of wild-type cotton (Coker 130). At each post-emergence timing (Early, Mid, Late), one-half of a plot was sprayed with the 1× rate (0.5 lb/A) of dicamba and one-half of the same plot was sprayed with the 1× rate (0.5 lb/A) of glufosinate. Each of the three plots received dicamba and glufosinate spray at one of the post-emergence timing spray applications (Early, Mid, Late).
XR TeeJet® extended range flat spray tips with an 80-degree spray angle were used (TeeJet Technologies, Wheaton, IL). There were 2 nozzles per row (nozzles spaced at 15″ for 30″ rows, 19″ for 38″ rows and 20″ for 40″ rows). Nozzle size depended on sprayer speed and nozzle spacing; however, nozzle size was selected to result in a spray pressure of 25 to 35 PSI. Boom height was adjusted to allow for 50% spray overlap (which occurs at roughly 30″ above the top of the crop).
At each rating time, the following observations were recorded: 1) percent necrosis or burn on the most affected leaves; 2) percent necrosis or burn on a whole-plant basis; 3) epinasty; and 4) any other relevant injury that was observed. Ratings were taken four days after each application and immediately prior to subsequent applications. […] Plots were harvested and recorded as lbs/plot of seedcotton and expressed as lb/acre of seedcotton.

[4] = tested on: transgenic cotton events (eight events)
Procedure: as §1

[5] = tested on: wild-type cotton (Coker 130); test: Year 2 efficacy field trial, wild-type plots; format: in vivo, Gossypium hirsutum; conditions: 1× rate (0.5 lb/A), half plot each herbicide, at one post-emergence timing (Early, Mid, Late)
Procedure: In year 2, efficacy testing was conducted with twelve events compared to non-transgenic, wild-type Coker 130. For this testing, paired plots were either sprayed or not sprayed. The plots were maintained weed-and insect-free using conventional control programs for the duration of the trial. For the plots that were sprayed, the following treatment applications were conducted (1) 0.5 lb/A dicamba applied PRE, Early POST, Mid POST and Late POST; (2) 1 lb/A dicamba applied PRE, Early POST, Mid POST and Late POST; (3) 2 lb/A dicamba applied PRE, Early POST, Mid POST and Late POST; (4) 0.5 lb/A glufosinate applied Early POST, Mid POST and Late POST: (5) 1 lb/A glufosinate applied Early POST, Mid POST and Late POST: 6) 2 lb/A glufosinate applied Early POST, Mid POST and Late POST; and 7) Control (unsprayed). Preemergence (PRE) is defined as immediately after cotton planting (within 24 hours); Early POST as 2-node cotton; Mid POST as 8-node cotton; and Late POST as 14 node cotton. […]
At each rating time, the following observations were recorded: 1) percent necrosis or burn on the most affected leaves; 2) percent necrosis or burn on a whole-plant basis; 3) epinasty; and 4) any other relevant injury that was observed. […] Plots were harvested and recorded as lbs/plot of seedcotton and expressed as lb/acre of seedcotton.

2-amino-4-(hydroxymethylphosphinyl)butanoic acid [glufosinate]
yield of seedcotton ([1]; all other treatment regimens of Table 2 (0.25-1 lb ai/A, four timings), FIG. 6): no yield loss
survival of the spray regimen [2]: did not survive
injury rating with increasing application rates of glufosinate ([3]; 0.5, 1, 2 lb/A glufosinate Early, Mid, Late POST, FIG. 5.B): increased percentage of injury
yield of seedcotton with increasing application rates of glufosinate ([3]; 0.5, 1, 2 lb/A glufosinate applied Early POST, Mid POST and Late POST, FIG. 4.B): nearly equivalent
yield of seed cotton, paired sprayed and unsprayed events compared to unsprayed wild-type Coker 130 ([4]; sequential regimen: dicamba 1 lb/A preemergence, 5 node, 12 node, glufosinate 1.09 lb/A at 2 node and 8 node, FIG. 3): no significant difference
survival of herbicide spray [5]: did not survive

COc1c(Cl)ccc(Cl)c1C(=O)O [dicamba, 3,6-dichloro-2-methoxybenzoic acid]
yield of seedcotton ([1]; in vivo): no yield loss
survival of the spray regimen [2]: did not survive
injury rating with increasing application rates of dicamba ([3]; in vivo): increased percentage of injury
yield of seedcotton with increasing application rates of dicamba ([3]; in vivo): nearly equivalent
yield of seed cotton, paired sprayed and unsprayed events compared to unsprayed wild-type Coker 130 ([4]; in vivo): no significant difference
survival of herbicide spray [5]: did not survive
